ChEMBL document CHEMBL3734677, “EVALUATION OF AROMATIC 6-SUBSTITUTED THIENOPYRIMIDINES AS SCAFFOLDS AGAINST PARASITES THAT CAUSE TRYPANOSOMIASIS, LEISHMANIASIS, AND MALARIA” (Medchemcomm, 2015)

Columns and labels:
[1] = system: Plasmodium falciparum; assay: Antiparasitic activity against Plasmodium falciparum D6; format: functional, organism-based
[2] = system: Leishmania major; assay: Antiparasitic activity against Leishmania major promastigotes; format: functional, organism-based
[3] = system: Trypanosoma cruzi; assay: Antiparasitic activity against Trypanosoma cruzi; format: functional, organism-based
[4] = system: Trypanosoma brucei; assay: Antiparasitic activity against Trypanosoma brucei at 5 uM after 48 hrs by cytometry; format: functional
[5] = system: HepG2; assay: (§1) Cytotoxicity against human HepG2 cells by MTT assay; format: cell-based; conditions: hepg2
[6] = system: Leishmania major; assay: Antiparasitic activity against Leishmania major amastigotes; format: functional, organism-based
[7] = system: Trypanosoma brucei; assay: Antiparasitic activity against Trypanosoma brucei after 48 hrs by cytometry; format: functional, organism-based
[8] = Selectivity ratio, ratio of EC50 for Plasmodium falciparum W2 to EC50 for Plasmodium falciparum D6; format: functional
[9] = Selectivity ratio, ratio of EC50 for Plasmodium falciparum C235 to EC50 for Plasmodium falciparum D6; format: functional
[10] = system: Trypanosoma cruzi; assay: Antiparasitic activity against Trypanosoma cruzi at 10 uM; format: functional
[11] = as §1; format: cell-based; conditions: HepG2 cells, read-out: TC50 (the source's name)
[12] = Plasma protein binding in human; format: ADME, cell-free
[13] = Aqueous solubility of compound; format: physicochemical; conditions: buffer
[14] = Metabolic stability in rat Hepatocytes; format: ADME, cell-based, Hepatocyte
[15] = Metabolic stability in human microsomes; format: ADME, Microsome
[16] = Plasmodium falciparum, D6, read-out: EC50
[17] = Leishmania major, read-out: EC50

Structure (SMILES)	EC50 [1, 16]	EC50 [2, 17]	EC50 [3]	inhibition at 5 µM [4]	Activity [5]	EC50 [6, 17]	EC50 [7]	Ratio EC50 [8]	Ratio EC50 [9]	inhibition at 10 µM [10]	CC50 [11]	PPB [12]	solubility [13]	Stability [14]	Stability [15]	EC50 [1]	EC50 [2]	EC50 [6]
Fc1cccc(COc2ccc(Nc3ncnc4cc(-c5cccc(N6CCOCC6)c5)sc34)cc2Cl)c1	860 nM	> 20000 nM	> 50000 nM	42%	Non-toxic	5400 nM												
CC(C)(C)NS(=O)(=O)c1ccccc1-c1cc2c(Nc3ccc(OCc4cccc(F)c4)c(Cl)c3)ncnc2s1	> 15000 nM	> 20000 nM	> 50000 nM		Non-toxic	> 15000 nM	500 nM											
CC(C)(C)OCc1ccc(-c2cc3ncnc(Nc4ccc(OCc5cccc(F)c5)c(Cl)c4)c3s2)cc1	1650 nM	> 20000 nM	30000 nM		Non-toxic	> 15000 nM	890 nM											
CS(=O)(=O)c1cccc(-c2cc3c(Nc4ccc(OCc5cccc(F)c5)c(Cl)c4)ncnc3s2)c1	520 nM	11800 nM	2400 nM		Non-toxic	> 15000 nM	1300 nM	< 3	< 3									
O=C(c1cccc(-c2cc3ncnc(Nc4ccc(OCc5cccc(F)c5)c(Cl)c4)c3s2)c1)N1CCCCC1	1170 nM	> 20000 nM	3200 nM	46%	Non-toxic	3100 nM												
O=C(c1cccc(-c2ccc3ncnc(Nc4ccc(OCc5cccc(F)c5)c(Cl)c4)c3c2)c1)N1CCCCC1	510 nM	> 3000 nM	> 50000 nM		Non-toxic	> 15000 nM												
Oc1ccc(-c2cc3ncnc(Nc4ccc(OCc5cccc(F)c5)c(Cl)c4)c3s2)cc1	440 nM	> 20000 nM	750 nM		Non-toxic	1580 nM	2200 nM											
Fc1cccc(COc2ccc(Nc3ncnc4ccccc34)cc2Cl)c1	5330 nM	1750 nM	2400 nM		Non-toxic	12400 nM	1300 nM											
Fc1cccc(COc2ccc(Nc3ncnc4sc(-c5ccccc5)cc34)cc2Cl)c1	> 20000 nM	> 20000 nM				> 15000 nM	1700 nM			42%	10000 nM							
Fc1cccc(COc2ccc(Nc3ncnc4sc(-c5ccccc5Oc5ccccc5)cc34)cc2Cl)c1	10800 nM	> 20000 nM			Non-toxic	> 15000 nM	1200 nM			45%								
Fc1cccc(COc2ccc(Nc3ncnc4sc(-c5ccc(CN6CCOCC6)cc5)cc34)cc2Cl)c1	89 nM	> 20000 nM	1700 nM	60%	Non-toxic	4200 nM		< 3	< 3									
O=C(c1cccc(-c2cc3c(Nc4ccc(OCc5cccc(F)c5)c(Cl)c4)ncnc3s2)c1)N1CCCCC1	2110 nM	> 20000 nM	> 50000 nM		Non-toxic	> 15000 nM	330 nM											
Fc1cccc(COc2ccc(Nc3ncnc4sc(-c5cc6ccccc6s5)cc34)cc2Cl)c1	> 4000 nM	> 3000 nM			Non-toxic	> 3000 nM	2900 nM			49%								
Fc1cccc(COc2ccc(Nc3ncnc4cc(-c5ccccc5Oc5ccccc5)sc34)cc2Cl)c1	6210 nM	> 20000 nM	> 50000 nM	10%	Non-toxic	3500 nM												
Cc1cc(-c2cc3ncnc(Nc4ccc(OCc5cccc(F)c5)c(Cl)c4)c3s2)cnc1N1CCOCC1	230 nM	> 3000 nM	3300 nM		Non-toxic	> 3000 nM	84 nM	< 3	< 3			> 99%	< 1 µM	Stable	Stable			
Oc1ccc(-c2ccc3ncnc(Nc4ccc(OCc5cccc(F)c5)c(Cl)c4)c3c2)cc1	> 20000 nM	> 20000 nM	> 50000 nM		Non-toxic	> 15000 nM	6500 nM											
CS(=O)(=O)c1cccc(-c2cc3ncnc(Nc4ccc(OCc5cccc(F)c5)c(Cl)c4)c3s2)c1	650 nM	> 3000 nM	2700 nM		Non-toxic	> 3000 nM	1400 nM	< 3	< 3									
CC(C)(C)NS(=O)(=O)c1ccccc1-c1ccc2ncnc(Nc3ccc(OCc4cccc(F)c4)c(Cl)c3)c2c1			6400 nM		Non-toxic		4700 nM									ND(Insoluble)	ND(Insoluble)	ND(Insoluble)
Fc1cccc(COc2ccc(Nc3ncnc4ccc(-c5ccccc5)cc34)cc2Cl)c1	790 nM	4050 nM	1800 nM			> 15000 nM	3900 nM				4900 nM							

Structure (SMILES)	EC50 [1, 16]	EC50 [2, 17]	EC50 [3]	inhibition at 5 µM [4]	Activity [5]	EC50 [6, 17]	EC50 [7]	Ratio EC50 [8]	Ratio EC50 [9]	inhibition at 10 µM [10]	CC50 [11]	PPB [12]	solubility [13]	Stability [14]	Stability [15]	EC50 [1]	EC50 [2]	EC50 [6]
Fc1cccc(COc2ccc(Nc3ncnc4cc(-c5cc6ccccc6s5)sc34)cc2Cl)c1	> 15000 nM	> 20000 nM	> 50000 nM	8%	Non-toxic	> 15000 nM												
Fc1cccc(COc2ccc(Nc3ncnc4ccc(-c5ccc(CN6CCOCC6)cc5)cc34)cc2Cl)c1	63 nM	2740 nM	600 nM			5910 nM	1000 nM	< 3	< 3		12900 nM							
Fc1cccc(COc2ccc(Nc3ncnc4ccc(-c5cc6ccccc6s5)cc34)cc2Cl)c1	910 nM	> 20000 nM	> 50000 nM		Non-toxic	> 15000 nM	6000 nM											
Fc1cccc(COc2ccc(Nc3ncnc4ccsc34)cc2Cl)c1	16400 nM	5680 nM	27000 nM	1%	Non-toxic	> 15000 nM												
Fc1cccc(COc2ccc(Nc3ncnc4sc(-c5cccc(N6CCOCC6)c5)cc34)cc2Cl)c1	520 nM	> 20000 nM	2200 nM		Non-toxic	2600 nM	400 nM											
Cc1cc(-c2cc3c(Nc4ccc(OCc5cccc(F)c5)c(Cl)c4)ncnc3s2)cnc1N1CCOCC1	280 nM	> 3000 nM			Non-toxic	> 3000 nM	420 nM	< 3	< 3	29%								
Fc1cccc(COc2ccc(Nc3ncnc4cc(-c5ccc(N6CCOCC6)cc5)sc34)cc2Cl)c1	3100 nM	> 20000 nM			Non-toxic	> 15000 nM	470 nM			0%								
Fc1cccc(COc2ccc(Nc3ncnc4cc(-c5ccc(CN6CCOCC6)cc5)sc34)cc2Cl)c1	27 nM	220 nM	> 50000 nM		Non-toxic	> 15000 nM	1100 nM		< 3									
Fc1cccc(COc2ccc(Nc3ncnc4cc(-c5ccccc5)sc34)cc2Cl)c1	2970 nM	8140 nM			Non-toxic	> 15000 nM	2800 nM			0%								
CC(C)(C)OCc1ccc(-c2ccc3ncnc(Nc4ccc(OCc5cccc(F)c5)c(Cl)c4)c3c2)cc1	600 nM	> 20000 nM	2200 nM		Non-toxic	4090 nM	220 nM											
CC(C)(C)OCc1ccc(-c2cc3c(Nc4ccc(OCc5cccc(F)c5)c(Cl)c4)ncnc3s2)cc1	7790 nM	> 20000 nM			Non-toxic	2030 nM	1600 nM			17%								
CC(C)(C)NS(=O)(=O)c1ccccc1-c1cc2ncnc(Nc3ccc(OCc4cccc(F)c4)c(Cl)c3)c2s1	1070 nM	> 20000 nM	670 nM		Non-toxic	2370 nM	1200 nM											
Fc1cccc(COc2ccc(Nc3ncnc4ccc(-c5cccc(N6CCOCC6)c5)cc34)cc2Cl)c1					Non-toxic	7980 nM						> 99%	< 1 µM	Stable	Stable			
Fc1cccc(COc2ccc(Nc3ncnc4ccc(-c5ccc(N6CCOCC6)cc5)cc34)cc2Cl)c1	270 nM	4400 nM				> 15000 nM	1900 nM			10.1%	9600 nM							
Fc1cccc(COc2ccc(Nc3ncnc4ccc(-c5ccccc5Oc5ccccc5)cc34)cc2Cl)c1	5790 nM	6860 nM			Non-toxic	> 15000 nM												
CS(=O)(=O)CCNCc1ccc(-c2ccc3ncnc(Nc4ccc(OCc5cccc(F)c5)c(Cl)c4)c3c2)o1 [LAPATINIB]											> 35000 nM							
Cc1cc(-c2ccc3ncnc(Nc4ccc(OCc5cccc(F)c5)c(Cl)c4)c3c2)cnc1N1CCOCC1	260 nM	> 20000 nM			Non-toxic	1140 nM	1000 nM	< 3	< 3	49%								
CS(=O)(=O)c1cccc(-c2ccc3ncnc(Nc4ccc(OCc5cccc(F)c5)c(Cl)c4)c3c2)c1	520 nM	3490 nM	5000 nM		Non-toxic	4670 nM	3200 nM	< 3	< 3									
